# Laboratory results reported in US7253146B2, “Template-fixed peptidomimetics with antimicrobial activity” (Polyphor Ltd, priority 2001, dated 2007).
# Read-outs that look alike come from different tables or passages of the source. *1 amine or outer side, *2 acyl side, *3 side chain or, on linkers, in order; H or OH if unused. Where a SMILES comes first, the peptide text is derived from it. [ ]: non-standard residue; d: D form. The star is where a group is joined. X1 = CCCCCCC(=O)N[C@H]1C[C@@H](C(=O)[*:2])N([*:1])C1; Bip = N[C@@H](Cc1ccc(-c2ccccc2)cc1)C(=O)O; Cha = N[C@@H](CC1CCCCC1)C(=O)O; Orn = NCCC[C@H](N)C(=O)O; Bn = c1ccc(C*)cc1
# Tests used:
# [1] = test system: Candida albicans
# Procedure: (§1) Lyophilized peptides were weighed on a Microbalance (Mettler MT5) and dissolved in sterile water containing 0.01% acetic acid Tachyplesin was purchased from Bachem Ltd. (Bubendorf Switzerland).
# (§2) The antimicrobial activities of the peptides were determined by the standard NCCLS broth microdilution method (see ref 1, below) examined in sterile 96-wells plates (Nunclon polystyrene microtiter plates) in a total volume of 100 μl. […] 10^6 colony forming units (CFU)/ml for bacteria or 5×10^3 CFU/ml for Candida. Aliquots (50 μl) of the innocula were added to 50 μl of MH broth containing the peptide in serial twofold dilutions. The microorganisms used were Escherichia coli (ATCC 25922), Pseudomnonas aeruginosa (P. aeruginosa) (ATCC 27853), Stahylococcus aureus (ATCC 29213 and ATCC 25923) and Candida albicans. A selected number of peptides were screened for activity against a larger panel of gram-negative strains. These strains were; Escherichia coli ATCC 43827 and clinical isolates of Pseudomonas (P. aeruginosa V07 14482, P. aeruginosa 15288, P. aeruginosa V02 15328 and P. aeruginosa V09 16085) and Acinetobacter (Acinetobacter V04 19905/1, Acinetobacter V12 21143/1 and Acinetobacter V12 21193/1).
# [2] = test system: Escherichia coli (ATCC 25922)
# Procedure: as §1, §2
# [3] = test system: Staphylococcus aureus ATCC 25923
# Procedure: as §1, §2
# [4] = test system: Staphylococcus aureus ATCC 29213
# Procedure: as §1, §2
# [5] = test system: human red blood cells (hRBC); assay: Hemolysis of human red blood cells at 100 μg/ml peptide; conditions: 100 μg/ml of peptide, 20% v/v hRBC, 1 hour at 37° C.
# Procedure: Hemolysis of red blood cells is often employed for assessment of toxicity of related compounds such as protegrin or tachyplesin. Values are given as %-lysis of red blood cells observed at a concentration of 100 μg/ml.
# The peptides were tested for their hemolytic activity against human red blood cells (hRBC). Fresh hRBC were washed three times with phosphate buffered saline (PBS) by centrifugation for 10 min at 2000×g. Peptides at a concentration of 100 μg/ml were incubated with 20% v/v hRBC for 1 hour at 37° C. The final erythrocyte concentration was appr. 0.9×10^9/ml. A value of 0% resp. 100% cell lysis was determined by incubation of the hRBC in the presence of PBS alone and resp. 0.1% Triton X-100 in H2O. The samples were centrifuged and the supernatant was 20 fold diluted in PBS buffer and the optical density (OD) of the sample at […] was measured. […] Percent hemolysis was calculated as follows: (OD540peptide/OD540H2O)×100%.
# [6] = test system: Candida albicans; remark: listed apart in the source
# Procedure: as §2
# (§3) Salt sensitivity of the peptides was tested by the microtiter serial dilution assay as described above. Only MH broth was replaced by MH broth containing 1% NaCl.
# [7] = test system: Escherichia coli ATCC 25922
# Procedure: as §2, §3
# [8] = test system: Pseudomonas putida ATCC 27853
# Procedure: as §2, §3
# [9] = test system: Staphylococcus aureus ATCC 25923; remark: listed apart in the source
# Procedure: as §2, §3
# [10] = test system: Staphylococcus aureus ATCC 29213; remark: listed apart in the source
# Procedure: as §2, §3
Structure (SMILES),MIC Candida albicans [1],MIC Escherichia coli ATCC 25922 ([2]; ATCC 25922),MIC Staphylococcus aureus ATCC 25923 ([3]; ATCC 25923),MIC Staphylococcus aureus ATCC 29213 ([4]; ATCC 29213),"MIC Candida albicans ([1]; Table 8, Mueller-Hinton broth)","MIC Escherichia coli ATCC 25922 ([2]; Table 8, Mueller-Hinton broth)","MIC Staphylococcus aureus ATCC 25923 ([3]; Table 8, Mueller-Hinton broth)","MIC Staphylococcus aureus ATCC 29213 ([4]; Table 8, Mueller-Hinton broth)",Hemolyses hRBC (percentage hemolyses) [5],Minimal inhibitory concentration (MIC) Candida albicans [6],Minimal inhibitory concentration (MIC) Escherichia coli ATCC 25922 [7],Minimal inhibitory concentration (MIC) Pseudomonas putida ATCC 27853 [8],Minimal inhibitory concentration (MIC) Staphylococcus aureus ATCC 25923 [9],Minimal inhibitory concentration (MIC) Staphylococcus aureus ATCC 29213 [10]
CC(C)C[C@@H]1NC(=O)[C@H](CCCNC(=N)N)NC(=O)[C@H](CC(C)C)NC(=O)[C@@H]2CCCN2C(=O)[C@H]2CCCN2C(=O)[C@H](C(C)C)NC(=O)[C@H](CCCNC(=N)N)NC(=O)[C@H]([C@@H](C)OCc2ccccc2)NC(=O)[C@H](CCCCN)NC(=O)[C@H](Cc2c[nH]c3ccccc23)NC(=O)[C@H](CCCNC(=N)N)NC(=O)[C@H](CCCNC(=N)N)NC(=O)[C@H](CCCCN)NC(=O)[C@H](CCCCN)NC1=O [Example 206] (cyclo(LRLKKRRWKT(Bn)RV[dP]P)),6.2 µg/mL,6.2 µg/mL,12.5 µg/mL,12.5 µg/mL,,,,,,,,,,
CC(C)C[C@@H]1NC(=O)[C@H](CCCNC(=N)N)NC(=O)[C@H](CC(C)C)NC(=O)[C@@H]2CCCN2C(=O)[C@H]2CCCN2C(=O)[C@H](C(C)C)NC(=O)[C@H](CCCNC(=N)N)NC(=O)[C@H](Cc2ccc(O)cc2)NC(=O)[C@H](CCCN)NC(=O)[C@H](Cc2c[nH]c3ccccc23)NC(=O)[C@H](CCCNC(=N)N)NC(=O)[C@H](CCCNC(=N)N)NC(=O)[C@H](CCCCN)NC(=O)[C@H](CCCCN)NC1=O [Example 217] (cyclo(LRLKKRRW[Orn]YRV[dP]P)),12.5 µg/mL,18.8 µg/mL,25 µg/mL,12.5 µg/mL,,,,,,,,,,
CC(C)C[C@@H]1NC(=O)[C@H](Cc2c[nH]c3ccccc23)NC(=O)[C@H](CC(C)C)NC(=O)[C@@H]2CCCN2C(=O)[C@H]2CCCN2C(=O)[C@H](C(C)C)NC(=O)[C@H](CCCNC(=N)N)NC(=O)[C@H](Cc2ccc(O)cc2)NC(=O)[C@H](CCCNC(=N)N)NC(=O)[C@H](Cc2ccc(-c3ccccc3)cc2)NC(=O)[C@H](CCCNC(=N)N)NC(=O)[C@H](CCCNC(=N)N)NC(=O)[C@H](CCCCN)NC(=O)[C@H](CCCCN)NC1=O [Example 232] (cyclo(LWLKKRR[Bip]RYRV[dP]P)),,,,,9.4 µg/mL,6.2 µg/mL,6.2 µg/mL,9.4 µg/mL,1.5%,,,,,
CC(C)C[C@@H]1NC(=O)[C@H](CCCNC(=N)N)NC(=O)[C@H](CC(C)C)NC(=O)[C@H](CC2CCCCC2)NC(=O)[C@H]2CCCN2C(=O)[C@H](C(C)C)NC(=O)[C@H](CCCNC(=N)N)NC(=O)[C@H](Cc2ccc(O)cc2)NC(=O)[C@H](CCCCN)NC(=O)[C@H](Cc2c[nH]c3ccccc23)NC(=O)[C@H](CCCNC(=N)N)NC(=O)[C@H](CCCNC(=N)N)NC(=O)[C@H](CCCCN)NC(=O)[C@H](CCCCN)NC1=O [Example 254] (cyclo([Cha]LRLKKRRWKYRV[dP])),12.5 µg/mL,12.5 µg/mL,12.5 µg/mL,6.2 µg/mL,,,,,,,,,,
CCCCCCC(=O)N[C@H]1C[C@H]2C(=O)N[C@@H](CC(C)C)C(=O)N[C@@H](CCCNC(=N)N)C(=O)N[C@@H](CC(C)C)C(=O)N[C@@H](CCCCN)C(=O)N[C@@H](CCCCN)C(=O)N[C@@H](CCCNC(=N)N)C(=O)N[C@@H](CCCNC(=N)N)C(=O)N[C@@H](Cc3c[nH]c4ccccc34)C(=O)N[C@@H](CCCCN)C(=O)N[C@@H](Cc3ccc(O)cc3)C(=O)N[C@@H](CCCNC(=N)N)C(=O)N[C@@H](C(C)C)C(=O)N3CCC[C@@H]3C(=O)N2C1 [Example 256] (cyclo(KKRRWKYRV[dP][X1]LRL)),6.2 µg/mL,3.1 µg/mL,6.2 µg/mL,6.2 µg/mL,,,,,,25 µg/mL,6.2 µg/mL,6.2 µg/mL,25 µg/mL,25 µg/mL
